Data on one compound can be found in PMC5471252, “Anti-leukemia activity of a Hsp70 inhibitor and its hybrid molecules” (Scientific Reports, 2017).

In assay [1] the test system is human leukemia cells (HL-60, KG-1, THP-1, U937, Jurkat and K562 cells). Nature of the assay: MTT assay, all tested leukemia cells (summary statements). Conditions: Homo sapiens, 48 h, read-out: IC50 values, cytotoxic activities toward all the tested leukemia. As to the method: To assess anti-leukemia activity of Az, several human leukemia cells (HL-60 cells, acute myeloid leukemia; Jurkat cells, acute T-lymphocytic leukemia; KG-1 cells, acute myeloid leukemia; U937 cells, acute myeloid leukemia; THP-1 cells, acute monocytic leukemia; K562 cells, chronic myeloid leukemia) were incubated with Az for 48 h. […] An MTT assay was then performed to measure cell viabilities.
Cells were exposed to each compound (a HCl salt form) at various concentrations for indicated time periods (24 or 48 h) in culture media. MTT assays were conducted according to known procedures. The absorbance at 570 nm was determined by employing a microplate reader (TECAN, Infinite® 200 PRO).

A further assay has as its system K562 cells. Kind of assay: MTT assay, cell viability of K562 cells. It is filed as cell-based. Particulars: Homo sapiens, 48 h, mean ± s.d., n = 3, read-out: IC50 values of compounds for leukemia cells. Background: Tetrazolium assays rely on reduction of a dye to a coloured formazan, in cell work by metabolically active cells.
Another assay deals with Jurkat cells. Kind of assay: MTT assay, cell viability of Jurkat cells. The class given is cell-based. Particulars: Homo sapiens, 48 h, mean ± s.d., n = 3, read-out: IC50 values of compounds for leukemia cells.
The subject of a further assay is U937 cells. Nature of the assay: MTT assay, cell viability of U937 cells. It is filed as cell-based. Particulars: Homo sapiens, U-937, 48 h, mean ± s.d., n = 3, read-out: IC50 values of compounds for leukemia cells.
Assay [2] relates to AIF translocation in HL-60 and K562 cells. Nature of the assay: AIF translocation to the nucleus (western blot, immunocytochemistry). The class given is cell-based, human. Conditions: 24 h; 2 μM for Az-O3-GD. From the text: Apoptosis-inducing factor (AIF) is known to be translocated from the cytosol to the nucleus during caspase-independent apoptosis (Supplementary Fig. S8b)[39]. In addition, it is also known that Hsp70 interacts with AIF directly and this interacting event results in blocking translocation of AIF to the nucleus and, in turn, prevents caspase-independent apoptosis. Because of these phenomena, we tested if Az has an influence on AIF-mediated caspase-independent apoptosis. To probe this issue, HL-60 and K562 cells were exposed to Az and the levels of AIF in the cytosolic and nuclear fractions were then determined. AIF translocation to the nucleus was not observed in Az-treated cells, based on western blot analysis (Fig. 4d). Additional evidence to support this conclusion was obtained from immunocytochemical analysis of leukemia cells treated with Az (Fig. 4d).
Western blot analysis. […] peroxidase-conjugated goat anti-rabbit IgG (1:2000, Santa Cruz Bio Technology) and goat anti-mouse IgG (1:2000, Santa Cruz Bio Technology) were used as the secondary antibodies. The blots were developed by using a West-ZOL® plus Western Blot Detection System (Intron Biotechnology Inc., South Korea). Western blot signals were analyzed by using a G:BOX Chemi Fluorescent & Chemiluminescent Imaging System.
Immunocytochemistry. […] Cell images were analyzed using the ZEN 2011 software.
In general terms: A western blot detects proteins with antibodies after separation by electrophoresis.

The test system of assay [3] is caspase activity of HL-60 and K562 cells. Nature of the assay: Caspase activity assay with Ac-DEVD-pNA in cell lysates. The class given is cell-based, human. Particulars: lysates of cells treated 24 h. As to the method:
Because Az inhibits the association of Hsp70 with Apaf-1, caspase associated proteolytic activities should increase in cells treated with Az. To determine whether this event occurs, caspase activities of HL-60 and K562 cells treated with Az were measured by using the colorimetric substrate, Ac-DEVD-pNA (pNA, p-nitroaniline). […] We also examined whether leukemia cells are protected from the effect of Az by ZVAD-FMK (benzyloxycarbonyl-Val-Ala-Asp(OMe) fluoromethyl ketone, a cell-permeable inhibitor of pan-caspases). HL-60 and K562 cells were pre-incubated with ZVAD-FMK for 3 h and subsequently exposed to Az.
HL-60 and K562 cells treated with each compound for 24 h were lysed in a buffer containing 50 mM HEPES (pH 7.4), 5 mM CHAPS and 5 mM DTT. Assay buffer containing 20 mM HEPES (pH 7.4), 0.01% CHAPS, 5 mM DTT and 2 mM EDTA was added to cell lysates. Caspase activity was measured in the absence or presence of acetyl-DEVD-pNA (200 μM) (Sigma-Aldrich) by using a microplate reader (monitored at 405 nm).

The test system of a further assay is THP-1 cells. Nature of the assay: MTT assay, cell viability of THP-1 cells. The class given is cell-based. Conditions: Homo sapiens, 48 h, mean ± s.d., n = 3, read-out: IC50 values of compounds for leukemia cells.
Assay [4] deals with T1, interaction of Hsp70 with Apaf-1 in HL-60 and K562 cells (Homo sapiens, UniProt P0DMV8).
T1 construct: endogenous in cells; host or cells: HL-60 and K562 cells
Kind of assay: Immunoprecipitation of Hsp70/Apaf-1 complex with Hsp70 antibody. It is filed as cell-based. Conditions: cells treated 24 h, co-immunoprecipitation. As to the method:
With this information in mind, we tested if Az enhances the cytochrome c release from mitochondria into the cytosol in leukemia cells. The levels of cytochrome c in cytosolic and mitochondrial fractions of HL-60 and K562 cells after treatment with Az were determined by using western blot analysis. […] We next determined if the binding of Hsp70 to Apaf-1 is suppressed by Az during apoptosis. For this purpose, HL-60 and K562 cells were exposed to Az, and a complex of Hsp70 and Apaf-1 was then immunoprecipitated with Hsp70 antibody.
Supplementary Figure S9. Az blocks association of Hsp70 with Apaf-1. (a) HL-60 and K562 cells were treated with Az for 24 h, and the amount of Hsp70, Hsc70 and Apaf-1 was measured by western blot. […] (b) HL-60 and K562 cells were treated with Az for 24 h. Immunoprecipitation was performed with a Hsp70 antibody, and the amount of co-precipitated Apaf-1 was determined by western blot.

T1 sequence (P0DMV8 whole entry): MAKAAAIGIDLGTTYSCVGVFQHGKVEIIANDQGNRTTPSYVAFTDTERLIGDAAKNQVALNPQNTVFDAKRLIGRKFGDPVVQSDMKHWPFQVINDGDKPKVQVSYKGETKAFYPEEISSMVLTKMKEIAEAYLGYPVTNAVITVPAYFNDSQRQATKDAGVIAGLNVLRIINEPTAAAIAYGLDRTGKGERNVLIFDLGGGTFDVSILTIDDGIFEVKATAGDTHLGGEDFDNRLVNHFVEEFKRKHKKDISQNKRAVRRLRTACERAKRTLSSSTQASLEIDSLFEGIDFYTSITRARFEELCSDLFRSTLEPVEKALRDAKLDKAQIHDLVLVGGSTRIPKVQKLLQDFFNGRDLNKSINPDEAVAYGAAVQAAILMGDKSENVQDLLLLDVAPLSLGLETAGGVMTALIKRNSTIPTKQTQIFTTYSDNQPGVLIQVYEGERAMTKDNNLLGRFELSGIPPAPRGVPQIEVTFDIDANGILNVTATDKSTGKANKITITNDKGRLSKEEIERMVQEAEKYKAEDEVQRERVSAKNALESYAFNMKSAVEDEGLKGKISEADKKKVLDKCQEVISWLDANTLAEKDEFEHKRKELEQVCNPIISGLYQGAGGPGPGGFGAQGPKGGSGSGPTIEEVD

The term IC50 denotes the concentration needed to halve the response being measured. For `COc1ccc(-c2nc(-c3cc(C(F)(F)F)cc(C(F)(F)F)c3)n(Cc3ccc(C(=O)NCCOCCOCCN)cc3)c2-c2ccc(OC)cc2)cc1` [Az, apoptozole], the 50% inhibitory concentration (IC50) was 2 to 5 µM in assay [1]; 3.6 ± 0.52 µM with K562 cells; 3.1 ± 0.61 µM in the assay with Jurkat cells; 4.7 ± 0.77 µM in the assay on U937 cells; 3.7 ± 0.73 µM with THP-1 cells. For the same compound, the “AIF translocation to the nucleus” value in assay [2] is reported as “not observed”. Besides, in assay [3], the “caspase activity of treated cells” value is recorded as “increase”. In addition, the “interaction of Hsp70 with Apaf-1” value in assay [4] is listed as “inhibits the interaction of Hsp70 with Apaf-1”.
